A melting point compilation (Tetko et al.; mined from patent text by program, amines drawn as free bases though some values may be those of a salt)

| melting point [°C] | SMILES |
| --- | --- |
| 87 to 90 | COC(OC)/C(=C/c1ccc(Cl)cc1Cl)c1ccc(Cl)cc1 |
| 183 | CCCC(C)NC(=O)c1ccc(C(=O)Nc2ccccc2NC(=O)OC(C)(C)C)s1 (configuration not stated) |
| 158 to 159 | O=C(O)c1ccccc1Oc1ccc(Br)cc1NS(=O)(=O)c1cc(C(F)(F)F)cc(C(F)(F)F)c1 |
| 166 to 169 | CC(C)COc1c(-c2ccc(S(C)(=O)=O)cc2)cnn(-c2cccc(Cl)c2)c1=O |
| 124 to 127 | CNC(=O)OC(C(Oc1ccc(Cl)cc1Cl)n1cncn1)C(C)(C)CF (configuration not stated) |
| 289 to 293 | COc1ccc(-c2nnc3c4ccccc4c(Nc4ccc(-c5nnn(C)n5)cc4)nn23)cc1 |
| 184 | COc1cccc2c(=O)c3c(O)cc(OCC(O)CCl)cc3oc12 (configuration not stated) |
| 207 to 209 | Nc1ccc(S(=O)(=O)c2cccc3cnccc23)cc1 |
| 131 to 132 | COc1ccc(-c2cc(-c3ccccc3)[nH]c2C(=O)NCc2ccc(C(=O)NCCS)cc2)cc1 |
| 234 | CCOC(=O)c1cn(OC)c2nc3cc(N4CC(NC)C4)c(F)cc3cc2c1=O |
| 106 to 107 | CCCOc1ccccc1-c1ncc(C(=O)OCC)c(=O)[nH]1 |
| 143 to 144 | Cc1oc(-c2ccccc2)nc1COc1cncc(COc2cccc(CC(=O)O)c2)c1 |
| 68 to 71 | CCCCCCCCCCCCc1nnn(C(C)(C)C(=O)O)n1 |
| 127 to 131 | O=C1c2ccccc2Nc2ccccc2N1CCCCl |
| 158 to 159 | O=C(O)CC(O)(Cn1cncn1)c1ccc(Cl)cc1Cl (configuration not stated) |
| 172 to 173 | COc1c(OCc2ccccc2)c(OC)c2c(=O)cc(-c3ccc(OCc4ccccc4)cc3)oc2c1OC |
| 165 | CCOC(=O)Cn1c2c([nH]c(=O)c1=O)CCC1=C2C=C(n2ccc(C(=O)NCc3ccc([N+](=O)[O-])cc3)c2)CC1 |
| 98 to 99 | O=CNCc1nc2ccccc2o1 |
| 199 to 204 | O=C(O)c1cn(-c2ccc(F)cc2)c(-c2ccc(Cl)cc2)cc1=O |
| 227 | CN(C)c1ccc(-c2cc(C(F)(F)F)c3c(-c4ccccc4)n[nH]c3n2)cc1 |
| 91 to 93 | CC(C)(C)OC(=O)N1C[C@@H](O)[C@H](n2ccnn2)C1 (relative stereo) |
| 171 to 172 | C#CCNC(=C[N+](=O)[O-])NCCSCc1ncccc1Cl |
| 231 | COc1ccc(-c2ncc(-c3cnc(-c4ccccc4)[nH]3)cn2)cc1OC |
| 116 to 117 | CCC(C#N)(C(N)=O)c1ccccc1 (configuration not stated) |
| 60 to 61 | N#Cc1cccc(COc2ccc3ccccc3c2)c1 |
| 155 to 163 | O=C(O)c1cc2cc(OCCNC[C@@H](O)c3csc(C(F)(F)F)n3)ccc2o1 |
| 167 to 168 | O=C(CCCCCCCNC(=O)OCc1ccccc1)Nc1cccc(C(=O)O)c1 |

| melting point [°C] | SMILES |
| --- | --- |
| 150 to 151 | CCOC(=O)C(C)(C)c1ccc(C2=NC(C)(C)Cc3cc(OC)c4c(c32)CC(C)(C)O4)cc1 |
| 102 | Cc1ccc(CNc2ccc3c(C#N)cccc3n2)o1 |
| 141 to 143 | CC(=O)N1C(C(=O)c2cn(C(=O)OC(C)(C)C)c3ccccc23)CSC1c1cccnc1 (configuration not stated) |
| 127 to 128 | COCn1nnc(NC(=O)C(c2ccccc2)c2ccccc2)n1 |
| 183 to 186 | CC(=O)OC1CCC2(C)C(=CC(=O)C3C2CCC2(C)C(C(C)CCCC(C)(C)C)CCC32)C1 (configuration not stated) |
| 225 to 228 | O=C1NC(=O)C(=Cc2csc(NC(c3ccccc3)(c3ccccc3)c3ccccc3)n2)S1 |
| 163 to 166 | COc1cccc2c(CCCNC3COc4c(F)ccc(C(N)=O)c4C3)coc12 (configuration not stated) |
| 212 to 214 | CNC(=O)C1=C(c2ccccc2)OC(c2ccccc2)CC1=O (configuration not stated) |
| 104 | O=C(Cc1ccccn1)c1ccc2ncccc2c1 |
| 192 to 194 | CC(=O)Nc1cnc2ccsc2c1 |
| 155 to 156 | Oc1cccc2c1c1cccc(F)c1n2Cc1ccccc1 |
| 137 to 139 | Cc1cccc(Nc2ncnc3ccc(CSc4nccn4C)cc23)c1 |
| 186 to 187 | CCOC(=O)C(=O)Nc1sccc1C(N)=O |
| 183 to 184 | COc1ccc(C(=O)Nc2ccccc2)cc1NC(=S)Nc1ccc([N+](=O)[O-])cc1 |
| 91 | COc1ccccc1OCCN1CCC(Cc2c[nH]c3ccc(F)cc23)CC1 |
| 81 to 82 | COC(=O)c1ccc(OC)nc1F |
| 214 to 217 | Nc1nc2c(Cl)ncnc2n1C1OC(CO)C(O)C1O (configuration not stated) |
| 270 to 275 | O=C(NN1CCNC1=O)c1cc(=O)c(O)c[nH]1 |
| 103 to 104 | CCOC(=O)C(Cc1ccc(OCCNC(=O)c2ccc(-c3ccccc3)cc2)cc1)Oc1ccccc1 (configuration not stated) |
| 180 to 182 | Cc1oc2ccccc2c1C(=O)NCc1ccc2c(Br)c(OCC#N)ccc2c1 |
| 148 to 150 | CN(Cc1ccc2c(Br)c(OCC#N)ccc2c1)C(=O)c1cn(C)c2ccccc12 |
| 192 to 194 | NS(=O)(=O)c1cc2c(Cl)nccc2o1 |
| 124 | Cc1cn(-c2cccc(C(=O)CC(=O)Nc3cc(-c4ccc(F)cc4)ccc3NC(=O)OC(C)(C)C)c2)cn1 |
| 67 | CCCc1c(O)c(Br)cc(C(C)=O)c1O |
| 232 to 236 | Cn1c(=O)c2c(nc(C=Cc3cccc(C(F)(F)F)c3)n2C)n(C)c1=O |
| 185 to 190 | CCCCCc1nc2ccc(C(=O)O)cc2c(=O)o1 |

The next lines start with the molecule.

| SMILES | melting point [°C] |
| --- | --- |
| COC(=O)Cc1csc(NC(=O)C(CC2CCCC2)c2ccc(Cl)c(Cl)c2)n1 (configuration not stated) | 150 to 151 |
| CC(=Cc1cc(O)c(O)c([N+](=O)[O-])c1)C(C)O (configuration not stated) | 102 to 104 |
| NS(=O)(=O)c1ccc(S(=O)(=O)N2CCc3cccc(-c4ccncc4)c32)cc1 | 242 to 243 |
| C=C(C)C(=O)Nc1ccc(NC(=O)C(=C)C)cc1 | 254 to 257 |
| CCOC(=O)c1cc2c3ccccc3n(Cc3ccccc3)c2c(C)n1 | 155 to 156 |
| O=C(c1ccc2nonc2c1)N1CC2CC1CO2 (configuration not stated) | 102 to 104 |
| Cc1cc(C2=NOC(c3cc(Cl)cc(Cl)c3)(C(F)(F)F)C2)ccc1C(=O)N(C)c1cncnc1 (configuration not stated) | 197 to 200 |
| Clc1ccc(COc2ccc(-c3nc(COc4ccc(CCCn5ccnc5)cc4)co3)cc2)cc1 | 151 to 152 |
| C=C1CCC2C3CCc4cc(O)ccc4C3CCC12C (configuration not stated) | 134 to 136 |
| COC(=O)Cc1cn(-c2ccccc2)nc1OCc1ccc(OCc2nc(-c3ccccc3)oc2C)nc1 | 96 to 97 |
| CC(C)(C)OC(=O)NC1CN(C(C(=O)OC(c2ccccc2)c2ccccc2)c2ccc(OC(=O)OC(C)(C)C)cc2)C1=O (configuration not stated) | 155 to 157 |
| O=C(O)Cc1ccc2nc(-c3ccccc3)oc2c1 | 170 |
| CC(=O)c1cccc(SCCCc2cn(S(=O)(=O)N(C)C)cn2)c1 | 122 to 124 |
| O=[N+]([O-])c1ccccc1C1=NCC(=S)Nc2sccc21 | 207 to 209 |
| Cn1cc(CS(C)=O)c(=O)c2ccccc21 (configuration not stated) | 93 to 95 |
| N=C(NO)c1ccc(-c2ccc(-c3nc4cc(C(=N)NO)ccc4[nH]3)c(F)c2)cc1 | 281 to 283 |
| N#CCCCCOc1ccc(C=Cc2ccncc2)cc1 | 85 to 87 |
| COc1cc2nc(N3CCc4ccc(N)cc4C3)nc(N)c2cc1OC | 265 to 266 |
| O=[N+]([O-])c1ccc2c(c1)C(c1ccccc1F)=[N+]([O-])C(CCl)N2 (configuration not stated) | 220 to 224 |
| CS(=O)(=O)c1ccc(-c2cc(CBr)nn2CC2CCCCC2)cc1 | 141 to 143 |
| CCOC(=O)[C@H](Cc1ccc(N)cc1)NC(=O)c1ccccc1 | 120 to 122 |
| CNc1nc(-c2cccc(NC(=O)c3ccncc3)c2)c2cc(OC)c(OC)cc2n1 | 228 to 230 |

| SMILES | melting point [°C] |
| --- | --- |
| C=CCOCC1CC(N)c2cc(S(N)(=O)=O)sc2S1(=O)=O (configuration not stated) | 167 to 168 |
| CCc1c(CCNC(=O)CCCCC(=O)O)ccc(OC)c1OC | 92 to 94 |
| Cn1c(=O)c(-c2ccc(Cl)cc2Cl)cc2c3cc(-c4nc(CN)cs4)ccc3n(C)c21 | 261 to 266 |
| O=CNNC(=S)Nc1ccccc1F | 148 to 149 |
| C=CCOC(=O)C1=C2[C@@H](OC)CCC[C@@H]2[C@@H]2[C@@H]([C@H](O)C(F)(F)F)C(=O)N12 | 78 to 85 |
| O=[N+]([O-])c1cc(C(F)(F)F)cc(C(F)(F)F)c1S(=O)(=O)Oc1ccccc1 | 83 to 84 |
| Cc1ccc(C(=O)Cn2c3c(sc2=O)CCCC3)cc1 | 108 to 110 |
| CC1(C)C(=O)CC(=O)C(C)(C)C1=O | 92.5 to 93 |
| COc1ccc(N2CCN(C)CC2)cc1-c1cn[nH]c1N | 174 to 178 |
| CC(OC(=O)C12CC3CC(CC(C3)C1)C2)c1ccncc1 (single isomer, unassigned; (-)) | 164 to 166 |
| CCC(O)(CC)c1ccc(-c2cccc(OCc3ccc(CO)c(CO)c3)c2)cc1C | 76 |
| Cc1ccccc1C(=O)c1ccc(Nc2ccc(Br)cc2NC(=O)OCCl)cc1Cl | 189 to 190 |
| COC1=CCC2=C(CCC3C2CCC2(C)C(=O)CCC32)C1 (configuration not stated) | 106 to 110 |
| COC(=O)C(C)(C)OCc1cc2cc(Cl)ccc2n1S(=O)(=O)c1ccc(OC)cc1 | 96 to 98 |
| COc1cc(O)c(C(=O)C=Cc2ccc(O)c(OC)c2)c(OC)c1 | 177 |
| COc1ccc(-c2[nH]nc3c2C(=O)c2c(NC(=O)Cc4cccc(OC)c4)cccc2-3)cc1 | > 300 |
| NC(=O)c1cccc(NC(=O)C(CS)Cc2ccccc2)c1 (configuration not stated) | 159 to 164 |
| Cn1c(=O)c(N)c(N)n(-c2ccc(Cl)cc2Cl)c1=O | 170 to 172 |
| Cc1cc(I)ccc1Nc1c(-c2nnc(N)o2)ccc(F)c1F | 184 |
| O=C1NC(c2ccccc2)CN1CCO (configuration not stated) | 60 to 63 |
| C=C1C[C@@H]2[C@H](CC[C@]3(C)C(=O)CC[C@@H]23)[C@@]2(C)CCC(=O)C(OC(C)=O)=C12 | 183 to 185 |
| COC(=O)CCNC(=O)c1cc(NC(=O)c2ccc(C(=N)NC(=O)OC(C)(C)C)cc2)ccc1O | 177 to 179 |
